Laboratory results reported in US11299510B2, “Substituted pyridopyrrolopyrimidine ribonucleosides for therapeutic uses” (USTAV ORGANICKE CHEMIE A BIOCHEMIE AV CR, V.V.I., priority 2018, dated 2022).

Columns and labels:
Format in all cases: cell-based
[1] = system: CEM (T-lymfoblastic leukemia); assay: cytotoxic MTS test, CEM; details: Homo sapiens, CCRF-CEM; CEM cells
From the text: (§1) To evaluate the antitumor activity of newly prepared compounds for in vitro conditions, we used cytotoxic MTS test (Nosková V. et al., Neoplasma 2002, 49, 418-425) on cell lines derived from normal tissues or tumors. Specifically, cell lines K562 (human acute myeloid leukemia); K562-Tax (human acute myeloid leukemia, paclitaxel resistant subline, overexpress multiple drug resistant protein PgP); CEM (T-lymfoblastic leukemia); CEM-DNR-bulk (T-lymfoblastic leukemia, doxorubicin resistant); A549 (human lung adenocarcinoma); HCT116p53 wt (human colorectal cancer, wild-type); HCT116p53−/−(human colorectal cancer, mutant p53) a U2OS (human bone osteosarcoma) were used. Express characteristics, susceptibility profiles of classic antitumor drugs as well as methodology of cytotoxic MTS test have been repeatedly published (Denizot, F.; Lang, R., J. Immunol. Meth. 1986, 89, 271-277; Noskova, V., see above; Šarek J. et al., J, Med. Chem., 2003, 46, 5402-5415).

[2] = system: A549 (human lung adenocarcinoma); assay: cytotoxic MTS test, A549; details: A549 cells
From the text: as §1

[3] = system: HCT116p53 wt (human colorectal cancer, wild-type); assay: cytotoxic MTS test, HCT116; details: HCT-116, HCT116 cells
From the text: as §1

[4] = system: BJ (normal human fibroblasts); assay: cytotoxic MTS test, BJ; details: BJ cells
[5] = system: MRC-5 (normal human fibroblasts); assay: cytotoxic MTS test, MRC-5; details: MRC5, MRC-5 cells
CCRF-CEM = assay: cytotoxic MTS test, CCRF-CEM; details: Homo sapiens; CCRF-CEM cells
From the text: as §1

HeLa = assay: cytotoxic MTS test, HeLa; details: Homo sapiens; HeLa cells
[6] = system: K562-Tax (human acute myeloid leukemia, paclitaxel resistant subline); assay: cytotoxic MTS test, K562-TAX; details: K562-TAX cells
From the text: as §1

HL 60 = assay: cytotoxic MTS test, HL 60; details: Homo sapiens; HL 60 cells
[7] = system: HCT116p53−/− (human colorectal cancer, mutant p53); assay: cytotoxic MTS test, HCT116p53; details: HCT116p53 cells
From the text: as §1

Hep G2 = assay: cytotoxic MTS test, Hep G2; details: Homo sapiens, HepG2; Hep G2 cells
[8] = system: U2OS (human bone osteosarcoma); assay: cytotoxic MTS test, U2OS; details: U2OS cells
From the text: as §1

[9] = system: K562 (human acute myeloid leukemia); assay: cytotoxic MTS test, K562; details: K562 cells
From the text: as §1

[10] = system: CEM-DNR-bulk (T-lymfoblastic leukemia, doxorubicin resistant); assay: cytotoxic MTS test, CEM-DNR; details: Homo sapiens; CEM-DNR cells
From the text: as §1

SMILES	IC50 [1] [µM]	IC50 [2] [µM]	IC50 [3] [µM]	IC50 [4] [µM]	IC50 [5] [µM]	IC50 (CCRF-CEM) [µM]	IC50 (HeLa) [µM]	IC50 [6] [µM]	IC50 (HL 60) [µM]	IC50 [7] [µM]	IC50 (Hep G2) [µM]	IC50 [8] [µM]	IC50 [9] [µM]	IC50 [10] [µM]
Cc1ncnc2c1c1ccncc1n2[C@@H]1O[C@H](CO)[C@@H](O)[C@H]1O [Compound 2d, 4-methyl-9-(β-D-ribofuranosyl)-9H-pyrido[4′,3′:4,5]pyrrolo[2,3-d]pyrimidine]	0.2 to 0.9	> 50	0.9 to 10	0.9 to 10	> 50	0.2 to 0.9	0.9 to 10	0.9 to 10	0.2 to 0.9	0.9 to 10	0.9 to 10	0.9 to 10	0.9 to 10	0.9 to 10
OC[C@H]1O[C@@H](n2c3cnccc3c3c(-c4ccsc4)ncnc32)[C@H](O)[C@@H]1O [Compound 2h, 4-(thiophen-3-yl)-9-(β-D-ribofuranosyl)-9H-pyrido[4′,3′:4,5]pyrrolo[2,3-d]pyrimidine]	> 50	> 50	> 50	> 50	> 50	> 50	> 50	> 50	> 50	> 50	> 50	> 50	> 50	> 50
OC[C@H]1O[C@@H](n2c3cccnc3c3c(-c4ccco4)ncnc32)[C@H](O)[C@@H]1O [Compound 1f, 4-(furan-2-yl)-9-(β-D-ribofuranosyl)-9H-pyrido[2′,3′:4,5]pyrrolo[2,3-d]pyrimidine]	> 50	> 50	> 50	> 50	> 50	> 50	> 50	> 50	> 50	> 50	> 50	> 50	> 50	> 50
OC[C@H]1O[C@@H](n2c3cnccc3c3c(-c4ccoc4)ncnc32)[C@H](O)[C@@H]1O [Compound 2g, 4-(furan-3-yl)-9-(β-D-ribofuranosyl)-9H-pyrido[4′,3′:4,5]pyrrolo[2,3-d]pyrimidine]	> 50	> 50	> 50	> 50	> 50	> 50	> 50	> 50	> 50	> 50	> 50	> 50	> 50	> 50
OC[C@H]1O[C@@H](n2c3cccnc3c3c(-c4cc5ccccc5o4)ncnc32)[C@H](O)[C@@H]1O [Compound 1i, 4-(benzofuran-2-yl)-9-(β-D-ribofuranosyl)-9H-pyrido[2′,3′:4,5]pyrrolo[2,3-d]pyrimidine]	> 50	> 50	> 50	> 50	> 50	10 to 25	> 50	> 50	> 50	> 50	> 50	> 50	> 50	> 50
Nc1ncnc2c1c1ccncc1n2[C@@H]1O[C@H](CO)[C@@H](O)[C@H]1O [Compound 2c, 4-amino-9-(β-D-ribofuranosyl)-9H-pyrido[4′,3′:4,5]pyrrolo[2,3-d]pyrimidine]	0.2 to 0.9	0.9 to 10	0.2 to 0.9	0.9 to 10	> 50	0.2 to 0.9	0.9 to 10	0.9 to 10	0.2 to 0.9	0.2 to 0.9	0.2 to 0.9	0.2 to 0.9	0.2 to 0.9	0.9 to 10
OC[C@H]1O[C@@H](n2c3cnccc3c3c(-c4ccco4)ncnc32)[C@H](O)[C@@H]1O [Compound 2f, 4-(furan-2-yl)-9-(β-D-ribofuranosyl)-9H-pyrido[4′,3′:4,5]pyrrolo[2,3-d]pyrimidine]	> 50	> 50	> 50	> 50	> 50	> 50	> 50	> 50	> 50	> 50	> 50	> 50	> 50	> 50
OC[C@H]1O[C@@H](n2c3cnccc3c3c(-c4cc5ccccc5o4)ncnc32)[C@H](O)[C@@H]1O [Compound 2i, 4-(benzofuran-2-yl)-9-(β-D-ribofuranosyl)-9H-pyrido[4′,3′:4,5]pyrrolo[2,3-d]pyrimidine]	> 50	10 to 25	0.9 to 10	25 to 50	10 to 25	0.9 to 10	> 50	10 to 25	> 50	10 to 25	> 50	10 to 25	10 to 25	10 to 25
CSc1ncnc2c1c1ccncc1n2[C@@H]1O[C@H](CO)[C@@H](O)[C@H]1O [Compound 2b, 4-(methylsulfanyl)-9-(β-D-ribofuranosyl)-9H-pyrido[4′,3′:4,5]pyrrolo[2,3-d]pyrimidine]	0.2 to 0.9	10 to 25	0.2 to 0.9	> 50	> 50	0.2 to 0.9	0.9 to 10	0.9 to 10	0.2 to 0.9	0.2 to 0.9	0.9 to 10	0.2 to 0.9	0.2 to 0.9	0.9 to 10
Cc1ncnc2c1c1ncccc1n2[C@@H]1O[C@H](CO)[C@@H](O)[C@H]1O [Compound 1d, 4-methyl-9-(β-D-ribofuranosyl)-9H-pyrido[2′,3′:4,5]pyrrolo[2,3-d]pyrimidine]	> 50	> 50	> 50	> 50	> 50	0.2 to 0.9	> 50	> 50	> 50	> 50	> 50	0.9 to 10	10 to 25	> 50
Nc1ncnc2c1c1ncccc1n2[C@@H]1O[C@H](CO)[C@@H](O)[C@H]1O [Compound 1c, 4-amino-9-(β-D-ribofuranosyl)-9H-pyrido[2′,3′:4,5]pyrrolo[2,3-d]pyrimidine]	> 50	> 50	25 to 50	0.9 to 10	> 50	0.2 to 0.9	> 50	> 50	0.2 to 0.9	25 to 50	0.9 to 10	0.9 to 10	25 to 50	> 50
CN(C)c1ncnc2c1c1ccncc1n2[C@@H]1O[C@H](CO)[C@@H](O)[C@H]1O [Compound 2e, 4-(dimethylamino)-9-(β-D-ribofuranosyl)-9H-pyrido[4′,3′:4,5]pyrrolo[2,3-d]pyrimidine]	> 50	> 50	> 50	> 50	> 50	> 50	> 50	> 50	> 50	> 50	> 50	> 50	> 50	> 50
COc1ncnc2c1c1ccncc1n2[C@@H]1O[C@H](CO)[C@@H](O)[C@H]1O [Compound 2a, 4-methoxy-9-(β-D-ribofuranosyl)-9H-pyrido[4′,3′:4,5]pyrrolo[2,3-d]pyrimidine]	0.9 to 10	> 50	0.9 to 10	> 50	> 50	0.2 to 0.9	0.9 to 10	0.9 to 10	0.2 to 0.9	0.9 to 10	0.9 to 10	0.9 to 10	0.9 to 10	0.9 to 10
CN(C)c1ncnc2c1c1ncccc1n2[C@@H]1O[C@H](CO)[C@@H](O)[C@H]1O [Compound 1e, 4-(dimethylamino)-9-(β-D-ribofuranosyl)-9H-pyrido[2′,3′:4,5]pyrrolo[2,3-d]pyrimidine]	> 50	> 50	> 50	> 50	> 50	> 50	> 50	> 50	> 50	> 50	> 50	> 50	> 50	> 50
